{
  "source": "the NIST ThermoML archive (doi:10.1016/j.fluid.2011.05.004)",
  "conditions": "Liquid, Chromatography",
  "data": [
    {"smiles": "CCC(C)=O", "note": "[butanone]", "values": [
      {"measurement": "vapor or sublimation pressure", "setting": "309.65 K", "result": 20, "unit": "kPa"},
      {"measurement": "vapor or sublimation pressure", "setting": "319.95 K", "result": 30, "unit": "kPa"},
      {"measurement": "vapor or sublimation pressure", "setting": "352.68 K", "result": 101.3, "unit": "kPa"}
    ]},
    {"smiles": "CCCCCCC", "note": "[heptane]", "values": [
      {"measurement": "vapor or sublimation pressure", "setting": "324.56 K", "result": 20, "unit": "kPa"},
      {"measurement": "vapor or sublimation pressure", "setting": "371.35 K", "result": 101.3, "unit": "kPa"}
    ]},
    {"smiles": "CC(C)CC(C)(C)C", "note": "[2,2,4-trimethylpentane]", "values": [
      {"measurement": "vapor or sublimation pressure", "setting": "323.65 K", "result": 20, "unit": "kPa"},
      {"measurement": "vapor or sublimation pressure", "setting": "372.33 K", "result": 101.3, "unit": "kPa"}
    ]},
    {"smiles": "CCCCCC", "note": "[hexane]", "values": [
      {"measurement": "vapor or sublimation pressure", "setting": "307.66 K", "result": 30, "unit": "kPa"},
      {"measurement": "vapor or sublimation pressure", "setting": "341.79 K", "result": 101.3, "unit": "kPa"}
    ]}
  ]
}
